Columns and labels:
[1] = log P determination with LC-MS under acidic conditions, pH 2.7; format: physicochemical; conditions: reverse phase HPLC column (C 18)
Protocol: (§1) The determination of the log P values given in the above table and preparation examples is carried out in accordance with EEC directive 79/831 Annex V.A8 by HPLC (High Performance Liquid Chromatography) on a reverse phase column (C 18). Temperature: 43° C. The determination with LC-MS under acidic conditions is carried out at pH 2.7 with 0.1% aqueous formic acid and acetonitrile (contains 01% formic acid) as eluents; linear gradient from 10% acetonitrile to 95% acetonitrile. Calibration was is carried out with unbranched alkan-2-ones (with 3 to 16 carbon atoms) of known log P values (Determination of log P values by the retention times by linear interpolation between two sequential alkanones).

[2] = system: larvae of the mustard leaf beetle (Phaedon cochleariae); assay: Phaedon test (spray treatment); format: in vivo; conditions: for activity in Phaedon test (spray treatment): statement in words
Protocol: (§2) [table] For the preparation of a suitable active compound formulation 1 part by weight of the active compound is mixed with the above amounts of solvent and emulsifier and the concentrate is diluted to the desired concentration with water containing emulsifier. China cabbage slices (Brassica pekinensis) are sprayed with an active compound preparation of the desired composition and after drying infected with larvae of the mustard leaf beetle (Phaedon cochleariae). After the desired time the activity in % is determined. Here 100% means that all beetle larvae were killed; 0% means that no beetle larvae were killed.

[3] = system: caterpillars of the fall army worm (Spodoptera frugiperda); assay: Spodoptera frugiperda test (spray treatment); format: in vivo; conditions: for pest or weed control at 4 g/ha: Spodoptera frugiperda, 168 h, spray treatment, maize leaf sections, after 7 d, read-out: Death rate in % after 7d; for activity in Spodoptera frugiperda test (spray treatment): statement in words
Protocol: as §2, with “Maize leaf sections (Zea mays)” for “China cabbage slices (Brassica pekinensis)”, “concentration” for “composition”, “caterpillars” for “larvae”, “fall army worm (Spodoptera frugiperda).” for “mustard leaf beetle (Phaedon cochleariae).”, “caterpillars” for “beetle larvae”

[4] = system: green peach aphid (Myzus persicae); assay: Myzus test (spray treatment); format: in vivo; conditions: for pest or weed control at 100 g/ha: Myzus persicae, in Brassica oleracea, 120 h, spray treatment, China cabbage slices, after 5 d, read-out: Death rate in % after 5d; for activity in Myzus test (spray treatment): statement in words
Protocol: (§3) [table] For the preparation of a suitable active compound formulation 1 part by weight of the active compound is mixed with the above amounts of solvent and emulsifier and the concentrate is diluted to the desired concentration with water containing emulsifier. China cabbage slices (Brassica pekinensis) that are infected with all stages of the green peach aphid (Myzus persicae) are sprayed with an active compound preparation at the desired concentration. After the desired time the activity in % is determined. Here 100% means that all aphids were killed; 0% means that no aphids were killed.

[5] = system: caterpillars of the diamond back moth (Plutella xylostella); assay: Plutella test; format: in vivo; conditions: for Death rate in % after 7d: cabbage leaves dipped; for activity in Plutella test: statement in words
Protocol: [table] For the preparation of a suitable active compound formulation 1 part by weight of the active compound is mixed with the above amounts of solvent and emulsifier and the concentrate is diluted to the desired concentration with water containing emulsifier. Cabbage leaves (Brassica oleracea) are treated by dipping into the active compound preparation of the desired concentration and infected with caterpillars of the diamond back moth (Plutella xylostella) while the leaves were still wet. After the desired time the death rate is determined as %. Here 100% means that all caterpillars were killed; 0% means no caterpillars were killed.

[6] = log P determination by HPLC on reverse phase column, pH 2.3; format: physicochemical; conditions: reverse phase HPLC column (C 18), reverse phase column (C 18), pH 2.3, 43° C.
Protocol: as §1, with “is carried out” for “with LC-MS”, “conditions” for “conditions is carried out”, “2.3” for “2.7”, “phosphoric” for “formic”, “acetonitrile” for “acetonitrile (contains 01% formic acid)”, “of” for “from”

[7] = system: cotton aphid (Aphis gossypii); assay: Aphis gossypii test; format: in vivo; conditions: for Death rate in % after 7d: cotton leaves immersed; for activity in Aphis gossypii test: statement in words
Protocol: as §3, with “Cotton leaves (Gossypium hirsutum) heavily infested with the cotton aphid (Aphis gossypii)” for “China cabbage slices (Brassica pekinensis) that”, “treated by immersion in” for “infected with all stages of”, “the” for “the green peach aphid (Myzus persicae) are sprayed with an”, “death rate” for “activity”

[8] = Phaedon cochleariae, 168 h, spray treatment, China cabbage slices, after 7 d, read-out: Death rate in % after 7d

Row | SMILES | chromatographic logP [1] | pest or weed control at 100 g/ha [2, 8] [%] | activity in Phaedon test (spray treatment) [2] | pest or weed control at 4 g/ha [3] [%] | activity in Spodoptera frugiperda test (spray treatment) [3] | pest or weed control at 100 g/ha [4] [%] | activity in Myzus test (spray treatment) [4] | Death rate in % after 7d ([5]; 0.8 ppm) [%] | activity in Plutella test [5] | chromatographic logP [6] | Death rate in % after 7d ([7]; 20 ppm) [%] | activity in Aphis gossypii test [7] | Death rate in % after 7d ([5]; 0.16 ppm) [%] | Death rate in % after 7d ([7]; 100 ppm) [%] | pest or weed control at 4 g/ha ([2]; Phaedon cochleariae, 168 h, 4 g/ha, spray treatment, China cabbage slices, after 7 d, read-out: Death rate in % after 7d) [%]
1 | Cc1sc(CO)cc1[N+](=O)[O-] [(5-methyl-4-nitro-2-thienyl)methanol] | 1.4 | – | – | – | – | – | – | – | – | – | – | – | – | – | –
2 | CSC[C@H](C)NC(=O)c1c(Cl)cccc1C(=O)Nc1ccc(Cn2nc(C(F)(F)F)cc2C(F)(F)F)nc1C [Example 1, N^1-(6-{[3,5-bis(trifluoromethyl)-1H-pyrazol-1-yl]methyl}-2-methylpyridin-3-yl)-3-chloro-N^2-[(1S)-1-methyl-2-(methylthio)ethyl]phthalamide] | – | 100 | good activity | 100 | good activity | 100 | good activity | – | – | – | – | – | – | – | –
3 | Cc1nc(Cn2nc(C(F)(F)F)cc2C(F)(F)F)ccc1NC(=O)c1cccc(Cl)c1C(=O)N[C@@H](C)C[S+](C)[O-] (stereo partly drawn) [Example 2, N^1-(6-{[3,5-bis(trifluoromethyl)-1H-pyrazol-1-yl]methyl}-2-methylpyridin-3-yl)-3-chloro-N^2-[(1S)-1-methyl-2-(methylsulphinyl)ethyl]phthalamide] | – | 100 | good activity | 100 | good activity | 100 | good activity | – | – | – | – | – | – | – | –
4 | CSC[C@H](C)NC(=O)c1c(I)cccc1C(=O)Nc1ccc(Cn2nc(C(F)(F)F)cc2C(F)(F)F)nc1C [Example 6] | – | 100 | good activity | 100 | good activity | 100 | good activity | 100 | good activity | 3.68 | 95 | good activity | – | – | –
5 | Cc1nc(Cn2nc(C(F)(F)F)cc2C(F)(F)F)ccc1NC(=O)c1cccc(I)c1C(=O)N[C@@H](C)C[S+](C)[O-] (stereo partly shown) [Example 7] | – | 90 | good activity | 100 | good activity | 90 | good activity | – | – | 2.42 | – | – | – | – | –
6 | Cc1nc(Cn2nc(C(F)(F)F)cc2C(F)(F)F)ccc1NC(=O)c1cccc(I)c1C(=O)N[C@@H](C)CS(C)(=O)=O [Example 8] | – | 100 | good activity | 100 | good activity | 100 | good activity | – | – | 2.8 | – | – | – | – | –
7 | Cc1nc(Cn2nc(C(F)(F)F)nc2C(F)(F)F)ccc1NC(=O)c1cccc(I)c1C(=O)N[C@@H](C)C[S+](C)[O-] (stereo partly shown) [Example 13] | – | 100 | good activity | 100 | good activity | 100 | good activity | – | good activity | 2.28 | – | – | 95 | – | –
8 | CSC[C@H](C)NC(=O)c1c(Cl)cccc1C(=O)Nc1ccc(Cn2nc(C(F)(F)F)nc2C(F)(F)F)nc1C [Example 14] | – | 90 | good activity | 100 | good activity | 90 | good activity | – | – | 3.39 | – | – | – | – | –
9 | Cc1nc(Cn2nc(C(F)(F)F)nc2C(F)(F)F)ccc1NC(=O)c1cccc(Cl)c1C(=O)N[C@@H](C)C[S+](C)[O-] (stereo partly shown) [Example 15] | – | 100 | good activity | 100 | good activity | 100 | good activity | – | – | 2.17 | – | – | – | – | –
10 | Cc1nc(Cn2nc(C(F)(F)F)nc2C(F)(F)F)ccc1NC(=O)c1cccc(Cl)c1C(=O)N[C@@H](C)CS(C)(=O)=O [Example 16] | – | 100 | good activity | 100 | good activity | 100 | good activity | – | good activity | 2.56 | – | good activity | 100 | 80 | –
11 | CSC[C@H](C)NC(=O)c1c(Cl)cccc1C(=O)Nc1cnc(Cn2nc(C(F)(F)C(F)(F)F)nc2C(F)(F)F)nc1C [Example 30] | – | – | – | 100 | good activity | 90 | good activity | – | – | 3.62 | – | – | – | – | –
12 | CSC[C@H](C)NC(=O)c1c(Br)cccc1C(=O)Nc1cnc(Cn2nc(C(F)(F)C(F)(F)F)nc2C(F)(F)F)nc1C [Example 31] | – | – | – | 100 | good activity | 100 | good activity | – | – | 3.67 | – | – | – | – | –
13 | Cc1nc(Cn2nc(C(F)(F)F)cc2C(F)(F)F)ncc1NC(=O)c1cccc(Cl)c1C(=O)N[C@@H](C)CS(C)(=O)=O [Example 34] | – | – | – | 100 | good activity | – | good activity | – | – | 2.56 | – | – | – | – | –
14 | Cc1nc(Cn2cc(C(F)(F)C(F)(F)F)c(C(F)(F)C(F)(F)F)n2)ncc1NC(=O)c1cccc(Cl)c1C(=O)N[C@@H](C)C[S+](C)[O-] (stereo partly shown) [Example 65] | – | – | good activity | 100 | good activity | 100 | good activity | – | – | 2.91 | – | good activity | – | 80 | 100
15 | Cc1nc(Cn2nc(C(F)(F)F)cc2C(F)(F)F)ccc1N [IIIa-1, 6-{[3,5-bis(trifluoromethyl)-1H-pyrazol-1-yl]methyl}-2-methylpyridin-3-amine] | 1.9 | – | – | – | – | – | – | – | – | – | – | – | – | – | –
16 | Cc1sc(Cn2nc(C(F)(F)F)nc2C(F)(F)F)cc1N [IIIb-1, 5-{[3,5-bis(trifluoromethyl)-1H-1,2,4-triazol-1-yl]methyl}-2-methylthiophene-3-amine] | 2.2 | – | – | – | – | – | – | – | – | – | – | – | – | – | –

— US7884242B2, “N-heterocyclylphthaldiamides as insecticides” (Bayer CropScience AG, priority 2004, dated 2011)
